{
  "source": "ChEMBL document CHEMBL5260821",
  "about": "“2-Aminothiophene scaffolds: Diverse biological and pharmacological attributes in medicinal chemistry” (Eur J Med Chem, 2017)",
  "key": {"Influenza A virus [1]": {"test_system": "Influenza A virus", "experiment": "Antiviral activity against Influenza A virus A/WSN/33(H1N1) strain", "assay_type": "functional, organism-based"}, "Staphylococcus aureus": {"test_system": "Staphylococcus aureus", "experiment": "Antibacterial activity against Staphylococcus aureus ATCC 6538 assessed as inhibition zone", "assay_type": "functional"}, "HCT-15": {"test_system": "HCT-15", "experiment": "Antiproliferative activity against human HCT-15 cells assessed as reduction in cell viability measured for 48 hr by MTT assay", "assay_type": "functional, cell-based", "details": "HCT-15, 48 h"}, "Influenza A virus [2]": {"test_system": "Influenza A virus", "experiment": "Antiviral activity against Influenza A virus H3N2 subtype", "assay_type": "functional, organism-based"}, "T47D": {"test_system": "T47D", "experiment": "Antiproliferative activity against human T47D cells assessed as reduction in cell viability measured for 48 hr by MTT assay", "assay_type": "functional, cell-based"}, "Escherichia coli": {"test_system": "Escherichia coli", "experiment": "Antibacterial activity against Escherichia coli ATCC 11229 assessed as inhibition zone", "assay_type": "functional"}, "A549": {"test_system": "A549", "experiment": "Antiproliferative activity against human A549 cells assessed as reduction in cell viability measured for 48 hr by MTT assay", "assay_type": "functional, cell-based", "details": "A549, 48 h"}, "Candida albicans": {"test_system": "Candida albicans", "experiment": "Antifungal activity against Candida albicans ATCC 10231 assessed as inhibition zone", "assay_type": "functional"}, "Influenza A virus [3]": {"test_system": "Influenza A virus", "experiment": "Antiviral activity against influenza A virus", "assay_type": "functional, organism-based"}, "Neprilysin": {"target": "Neprilysin (Homo sapiens, UniProt P08473)", "sequence (P08473 whole entry)": "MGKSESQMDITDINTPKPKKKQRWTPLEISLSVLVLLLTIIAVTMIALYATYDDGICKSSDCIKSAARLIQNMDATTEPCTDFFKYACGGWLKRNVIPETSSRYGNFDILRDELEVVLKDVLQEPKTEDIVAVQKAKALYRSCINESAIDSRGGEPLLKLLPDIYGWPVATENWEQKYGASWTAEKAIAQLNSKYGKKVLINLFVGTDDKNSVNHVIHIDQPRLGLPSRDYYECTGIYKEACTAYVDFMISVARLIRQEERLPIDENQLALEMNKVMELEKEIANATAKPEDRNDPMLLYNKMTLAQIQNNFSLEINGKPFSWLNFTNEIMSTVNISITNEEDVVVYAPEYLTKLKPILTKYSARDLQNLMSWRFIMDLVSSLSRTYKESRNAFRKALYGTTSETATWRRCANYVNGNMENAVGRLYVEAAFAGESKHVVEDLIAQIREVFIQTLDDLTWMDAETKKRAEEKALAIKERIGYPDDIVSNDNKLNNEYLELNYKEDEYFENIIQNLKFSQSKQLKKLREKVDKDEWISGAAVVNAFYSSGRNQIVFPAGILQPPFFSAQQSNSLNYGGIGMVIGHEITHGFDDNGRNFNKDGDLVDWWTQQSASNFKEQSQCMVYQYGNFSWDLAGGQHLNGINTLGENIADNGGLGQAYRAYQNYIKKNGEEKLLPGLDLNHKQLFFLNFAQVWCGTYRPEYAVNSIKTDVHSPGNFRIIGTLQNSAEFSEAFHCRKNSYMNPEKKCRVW", "experiment": "Partial agonist activity at human neprilysin expressed in CHP-212 cells", "assay_type": "cell-based"}, "PC-3": {"test_system": "PC-3", "experiment": "Antiproliferative activity against human PC-3 cells assessed as reduction in cell viability measured for 48 hr by MTT assay", "assay_type": "functional, cell-based", "details": "PC-3, 48 h"}, "CCRF-CEM": {"test_system": "CCRF-CEM", "experiment": "Antiproliferative activity against human CEM cells assessed as reduction in cell viability", "assay_type": "functional, cell-based"}, "PANC-1 [4]": {"test_system": "PANC-1", "experiment": "Antiproliferative activity against human PANC-1 cells assessed as reduction in cell viability at 25 to 50 uM relative to control", "assay_type": "functional", "details": "dose 25-50 µM"}, "HeLa [5]": {"test_system": "HeLa", "experiment": "Antiproliferative activity against human HeLa cells assessed as reduction in cell viability at 10 to 50 uM relative to control", "assay_type": "functional", "details": "dose 10-50 µM"}, "PANC-1 [6]": {"test_system": "PANC-1", "experiment": "Induction of cell cycle arrest in human PANC-1 cells assessed as accumulation of cells in G0/G1 phase", "assay_type": "functional"}, "HeLa [7]": {"test_system": "HeLa", "experiment": "Induction of cell cycle arrest in human HeLa cells assessed as accumulation of cells in subG1 phase", "assay_type": "functional"}},
  "data": [
    {"compound": "CCOC(=O)c1c(N)sc(/N=C/c2ccc([N+](=O)[O-])o2)c1C(=O)OCC", "values": [
      {"measurement": "IC50", "setting": "Influenza A virus [1]", "result": 0.94, "unit": "µM"},
      {"measurement": "inhibition zone (IZ)", "setting": "Staphylococcus aureus", "result": 22, "unit": "mm"},
      {"measurement": "IC50", "setting": "HCT-15", "result": 10.2, "unit": "µM"},
      {"measurement": "IC50", "setting": "Influenza A virus [2]", "result": 2.4, "unit": "µM"},
      {"measurement": "IC50", "setting": "T47D", "result": 21.4, "unit": "µM"},
      {"measurement": "inhibition zone (IZ)", "setting": "Escherichia coli", "result": 16, "unit": "mm"},
      {"measurement": "IC50", "setting": "A549", "result": 22.8, "unit": "µM"},
      {"measurement": "inhibition zone (IZ)", "setting": "Candida albicans", "result": ">22", "unit": "mm"},
      {"measurement": "IC50", "setting": "Influenza A virus [3]", "result": 0.79, "unit": "µM"}
    ]},
    {"compound": "CCCN(CC(F)(F)F)c1cc(Br)c(C#N)s1", "values": [
      {"measurement": "EC50", "setting": "Neprilysin", "result": 0.005, "unit": "µM"}
    ]},
    {"compound": "CCOC(=O)c1c(N)sc(/N=C/c2ccc([N+](=O)[O-])s2)c1C(=O)OCC", "values": [
      {"measurement": "IC50", "setting": "Influenza A virus [1]", "result": 3.56, "unit": "µM"},
      {"measurement": "IC50", "setting": "HCT-15", "result": 6.1, "unit": "µM"},
      {"measurement": "IC50", "setting": "Influenza A virus [2]", "result": 3.72, "unit": "µM"},
      {"measurement": "IC50", "setting": "A549", "result": 1.3, "unit": "µM"},
      {"measurement": "IC50", "setting": "PC-3", "result": 10.9, "unit": "µM"},
      {"measurement": "IC50", "setting": "Influenza A virus [3]", "result": 10.5, "unit": "µM"}
    ]},
    {"compound": "COC(=O)c1cc(CSCc2ccc(C(C)C)cc2)sc1N", "values": [
      {"measurement": "IC50", "setting": "CCRF-CEM", "result": 0.46, "unit": "µM"}
    ]},
    {"compound": "COc1ccc(Br)cc1/C=N/c1sc2c(c1C#N)CCCCC2", "values": [
      {"measurement": "Activity", "setting": "PANC-1 [4]", "result": 50, "unit": "%"},
      {"measurement": "Activity", "setting": "HeLa [5]", "result": 35, "unit": "%"},
      {"measurement": "Activity", "setting": "PANC-1 [6]", "result": 28.2, "unit": "%"},
      {"measurement": "Activity", "setting": "HeLa [7]", "result": 6.2, "unit": "%"}
    ]},
    {"compound": "N#Cc1c(/N=C/c2ccc(F)cc2)sc2c1CCCC2", "values": [
      {"measurement": "Activity", "setting": "PANC-1 [4]", "result": 68, "unit": "%"},
      {"measurement": "Activity", "setting": "HeLa [5]", "result": 50, "unit": "%"},
      {"measurement": "Activity", "setting": "PANC-1 [6]", "result": 9.3, "unit": "%"},
      {"measurement": "Activity", "setting": "HeLa [7]", "result": 12.05, "unit": "%"}
    ]},
    {"compound": "CCc1ccc(CSCc2cc(C(=O)OC)c(N)s2)cc1", "values": [
      {"measurement": "IC50", "setting": "CCRF-CEM", "result": 0.34, "unit": "µM"}
    ]}
  ]
}
